Earlier results in the CATMoS acute toxicity set (Mansouri et al. 2021).
Where “and” joins values, the source holds several entries; their conditions need not be identical. Equal entries are not always repeated.

Experiment: rat acute oral toxicity
Conditions: in vivo
For `O=C(O)CCCCC(=O)O`, the LD50 is listed as 7900 mg/kg and 10000 mg/kg. For `O=C(Cc1c[nH]c2ccccc12)NN1C(=O)CSC1=S`, the LD50 is given as 432 mg/kg. For `COP(=S)(OC)SCSc1ccc(Cl)c(Cl)c1`, the LD50 is listed as 220 mg/kg. For `CC(Cc1ccccc1)NCCn1cnc2c1c(=O)n(C)c(=O)n2C` (stereo not given), the LD50 is given as 100 mg/kg. In the case of `Cc1cc([N+](=O)[O-])ccc1S(=O)(=O)NCCO`, the LD50 is given as 4470 mg/kg. For `COCCC#N`, the LD50 is given as 4390 mg/kg. For `CN(C)C(=O)Oc1c(Cl)c(Cl)cc2[nH]c(C(F)(F)F)nc12`, the LD50 is given as 41 mg/kg. In the case of `CC(C)=C1C(=O)N(c2ccccc2)N(c2ccccc2)C1=O`, the LD50 is listed as 1280 mg/kg. In the case of `COC(COC(N)=O)C1=C(N2CC2)C(=O)C(C)=C(N2CC2)C1=O` (stereo not given), the LD50 is listed as 27.3 mg/kg. For `CC(C)(COCC1CO1)COCC1CO1` (stereo not given), the LD50 is given as 4500 mg/kg. In the case of `CC(CN(C)C)CN1c2ccccc2Sc2ccccc21` (stereo not given), the LD50 is listed as 210 mg/kg. In the case of `Clc1c(Cl)c(Cl)c2c(c1Cl)Oc1c(Cl)c(Cl)c(Cl)c(Cl)c1O2`, the LD50 is given as 1 mg/kg. For `O=c1oc2ccccc2c(O)c1C(CC(O)c1ccc(-c2ccc(Br)cc2)cc1)c1ccccc1` (stereo not given), the LD50 is given as 0.49 mg/kg. In the case of `COP(=S)(OC)SCN1C(=O)CCC1=O`, the LD50 is listed as 7 mg/kg. In the case of `O=[N+]([O-])c1cc([N+](=O)[O-])c(F)cc1F`, the LD50 is listed as 50 mg/kg. For `Cc1onc2c(=O)n(C)nc(-c3ccccc3)c12`, the LD50 is listed as 1000 mg/kg. In the case of `CC(=O)OCc1ccc(C(C)C)cc1`, the LD50 is listed as 1450 mg/kg. In the case of `CCCCOC(=O)Cc1ccc(N(CCCl)CCCl)cc1`, the LD50 is listed as 20 mg/kg. In the case of `N#CSc1ccc(C(=O)O)cc1`, the LD50 is listed as 83 mg/kg. For `CCOP(=S)(SC(C)CC)N(C=O)CC` (stereo not given), the LD50 is given as 95.9 mg/kg. In the case of `NC(=S)NC(=S)Nc1ccccc1`, the LD50 is given as 250 mg/kg. In the case of `C=CCON/C(CCC)=C1\C(=O)CC(C)(C)C(C(=O)OC)C1=O` (stereo not given), the LD50 is listed as 2260 mg/kg. In the case of `CC(C)(C#N)Nc1nc(Cl)nc(NC2CC2)n1`, the LD50 is listed as 290 mg/kg. For `O=C(Cl)c1ccccc1C(F)(F)F`, the LD50 is listed as 8200 mg/kg. In the case of `C1C[C@H]2C[C@@H]1[C@H]1SSS[C@@H]21`, the LD50 is listed as 300 mg/kg. In the case of `NC(N)=O`, the LD50 is listed as 350 mg/kg. In the case of `CCCCOCCCC`, the LD50 is given as 7400 mg/kg. In the case of `CCOc1ccc(NC(=O)CC(C)O)cc1` (stereo not given), the LD50 is given as 7000 mg/kg. In the case of `CC(=O)OCOC(=O)C1=C(COC(N)=O)SC2C(C(C)O)C(=O)N12` (stereo not given), the LD50 is given as 7230 mg/kg. For `C=CCI`, the LD50 is listed as 10 mg/kg. In the case of `CCCC/C=C\CCCCCCO`, the LD50 is given as 11700 mg/kg. For `O=C(CCCCC(=O)OC1CCCCC1)OC1CCCCC1`, the LD50 is given as 16000 mg/kg. For `Clc1ccc(-c2cccc(Cl)c2Cl)c(Cl)c1`, the LD50 is listed as 4250 mg/kg. For `CC(C)(C)[C@@H](O)[C@@H](Cc1ccc(Cl)cc1)n1cncn1` (single isomer, unassigned), the LD50 is listed as 1300 mg/kg. In the case of `O=C(O)Cc1ccc2c(c1)C(=O)c1ccccc1CN2`, the LD50 is listed as 810 mg/kg. In the case of `Nc1c(Cl)cc(C(=O)NC2CC2)cc1Cl`, the LD50 is given as 170 mg/kg. In the case of `O=C1C(O)=C(CC=C(Cl)Cl)C(=O)c2ccccc21`, the LD50 is listed as 281 mg/kg. For `O=COCC=Cc1ccccc1`, the LD50 is listed as 2900 mg/kg. In the case of `O=C(O)c1ccccc1C(=O)c1ccccc1`, the LD50 is listed as 4600 mg/kg. For `N#CC1CC=CCC1` (stereo not given), the LD50 is listed as 460 mg/kg. In the case of `CN(C)c1ccc(N=Nc2ccccc2)cc1`, the LD50 is listed as 200 mg/kg. In the case of `COc1ccccc1NC(=O)CC(=O)c1ccccc1`, the LD50 is given as 1600 mg/kg. For `c1ccc2c(c1)ncc1ncsc12`, the LD50 is listed as 350 mg/kg and 290 mg/kg. In the case of `CN1CC(CCN2CC=C(c3ccccc3)CC2)OC1=O` (stereo not given), the LD50 is given as 340 mg/kg. For `Cc1ccc(S(=O)(=O)N=C=O)cc1`, the LD50 is listed as 2230 mg/kg. For `Fc1cc(F)c2nc(C(F)(F)F)[nH]c2c1`, the LD50 is listed as 2.49 mg/kg. For `c1ccc2[nH]c(SN3CCCCC3)nc2c1`, the LD50 is listed as 853 mg/kg. For `O=[N+]([O-])c1ccc(CCl)cc1`, the LD50 is listed as 1810 mg/kg. In the case of `CN(C(=O)CF)c1cccc2ccccc12`, the LD50 is given as 67 mg/kg. In the case of `Clc1cc2c(c(Cl)c1Cl)Oc1c(Cl)c(Cl)c(Cl)c(Cl)c1O2`, the LD50 is given as 6.33 mg/kg. In the case of `FC(Cl)(Cl)c1ccccc1`, the LD50 is given as 450 mg/kg. For `COc1cc(Cc2cnc(N)nc2N)cc(OC)c1N(C)C`, the LD50 is given as 1400 mg/kg. In the case of `CCCCCCCCCCCCCCCCCOCC`, the LD50 is given as 1260 mg/kg. In the case of `O=c1[nH]c2ccccc2n1CCCN1CCC(n2c(=O)[nH]c3cc(Cl)ccc32)CC1`, the LD50 is given as 5240 mg/kg. In the case of `ClC(Cl)(Cl)c1ccc(C(Cl)(Cl)Cl)cc1`, the LD50 is given as 3200 mg/kg. In the case of `CCc1cc2c(cc1C=O)C(C)(C)CCC2(C)C`, the LD50 is listed as 3200 mg/kg. In the case of `COc1ccc(N)c(S(=O)(=O)O)c1`, the LD50 is given as 10000 mg/kg. For `CCOC(=O)C(Br)CBr` (stereo not given), the LD50 is listed as 240 mg/kg. For `COc1cc2[nH]c(=N)sc2cc1OC`, the LD50 is listed as 1160 mg/kg. In the case of `COCCOC(=O)c1ccccc1C(=O)OCCOC`, the LD50 is listed as 4400 mg/kg. In the case of `CCCCN(CCO)CCO`, the LD50 is listed as 4250 mg/kg. In the case of `CCCCCCCCCCOC(=O)Cc1ccc(N(CCCl)CCCl)cc1`, the LD50 is given as 150 mg/kg. For `CCN(CC)CCOCc1cc(Br)cc(Br)c1OC`, the LD50 is given as 500 mg/kg. In the case of `O=C(O)C1C2CCC(O2)C1C(=O)O` (stereo not given), the LD50 is given as 51 mg/kg. In the case of `CCCC(=O)OCN(C)N=O`, the LD50 is given as 800 mg/kg. For `CCS(=O)Cc1ccccc1OC(=O)NC` (stereo not given), the LD50 is given as 150 mg/kg. For `Cc1cccc(Nc2ccccc2C(=O)O)c1C`, the LD50 is given as 740 mg/kg. For `CCCC=C(C=NCCCCCCCCCCCCCCCCCCCCC)CC`, the LD50 is listed as 5320 mg/kg. In the case of `CC(C)(N)CO`, the LD50 is listed as 2900 mg/kg. For `CC(C=CC=C(C)C=CC(=O)C1(C)CC(O)CC1(C)C)=CC=CC=C(C)C=CC=C(C)C=CC1=C(C)CC(O)CC1(C)C` (stereo not given), the LD50 is given as 11200 mg/kg. For `CCOCCC(=O)O`, the LD50 is listed as 4800 mg/kg. In the case of `O=C1CCc2cc(C(=O)CCCN3CCN(c4ccccc4)CC3)ccc2N1`, the LD50 is listed as 500 mg/kg. For `OCCC(O)Cl` (stereo not given), the LD50 is given as 110 mg/kg. For `C=CN(CC)N=O`, the LD50 is given as 88 mg/kg. In the case of `CO[Si](C)(CCCNCCN)OC`, the LD50 is given as 200 mg/kg.
